{
  "source": "patent US6984496B2",
  "about": "“Vitro assay for testing gabapentinoid activity” (Warner-Lambert Company, priority 2001, dated 2006)",
  "key": {"[1]": {"test_system": "P38", "experiment": "P38 activation in CHO-NK-1 cells, Western blot with activation-specific antibodies", "assay_type": "cell-based, Chinese Hamster", "settings": "10 nM substance-P, data not shown", "source_text": "(§1) Since P38 and Jun kinases are closely related to MAP kinase, the effects of substance-P on these kinases was examined."}, "[2]": {"test_system": "MAP kinase", "experiment": "MAP kinase activation in CHO-NK-1 cells, Western blot with activation-specific antibodies", "assay_type": "cell-based, Chinese Hamster", "settings": "10 nM substance-P, data not shown"}, "[3]": {"test_system": "Jun kinase", "experiment": "Jun kinase activation in CHO-NK-1 cells, Western blot with activation-specific antibodies", "assay_type": "cell-based, Chinese Hamster", "settings": "10 nM substance-P, data not shown", "source_text": "as §1"}, "[4]": {"test_system": "NK1 mediated Elk-1 transcription", "experiment": "NK1 mediated Elk-1 luciferase reporter assay in CHO-NK-1 cells stimulated with substance P", "settings": "substance P 20 nM, 4 hours", "procedure": "CHO-NK-1 cells were seeded to plates and grown to confluency overnight. Lipofectamine transfection was performed on the confluent cells to insert Elk-1 and luciferase vectors necessary for a MAP kinase dependent reporter system. Prior to transfection, the cells were washed in OPTI media (Gibco). To each confluent well in a 24-well plate, 20 ng of Elk-1 and 200 ng of luciferase DNA vectors were added. In addition to the vectors, 1.5 μL of Lipofectamine Reagent (Gibco) and OPTI media (Gibco) were also added for a total transfection volume of 200 μL (a master mix was made prior to use). After a 3-hour incubation, the media was changed to F-12 growing media (500 μL/well) for an additional 3-hour incubation. After the second incubation, the media was changed again to DMEM (500 μL/well) for serum starvation and incubated overnight (all incubations at 37° C.).\nIn addition, lipofectamine transfection was performed on CHO-NK-1 confluent cells to insert a GAL4-Elk-1 fusion protein and luciferase vector using the methods described above.\nThe DMEM media was decanted off the plate, and the cells were washed with 500 μL of Kreb buffer. After the wash, 460 μL of Kreb buffer containing 2 mM sodium pyruvate was added to each well and incubated for 30 minutes at 37° C. Next, 20 μL of compound was added to each well at the desired concentration and incubated for another 30 minutes. […] Finally, the cells were stimulated with Substance-P (final concentration=20 nM), and the cells were incubated for 4 hours at 37° C. After the 4-hour incubation, the buffer was decanted off the plate, and the plate was washed twice with Dulbecco's-PBS. Cells were lysed with 100 μL per well of cell Lysis Buffer (Promega), and the plate was vortexed for 10 minutes. Finally, 10 μL of the cell lysate was transferred to a 96-well reader plate, and each well's luminescence was measured using a luminometer (the Promega Luciferase Reporter system was used)."}, "[5]": {"test_system": "rat mGluR5 mediated Erk-2 phosphorylation", "experiment": "mGluR5 mediated Erk phosphorylation in CHO-mGluR5 cells, Western blot with anti-pErk antibody", "assay_type": "cell-based", "description": ". Products from treated cells were analyzed by Western blotting with anti-pErk antibody.\nCHO cells engineered to express mGluR5 (CHO-mGluR5 cells) were plated in 12-well tissue culture plates at a density of 20,000 cells/well and grown for 24 hours, followed by further culturing in serum free medium for 16 hours. CHO-mGluR5 cells were incubated in Krebs buffer for 30 minutes at which time 1 mM sodium pyruvate and 10 μ/mL glutamic-pyruric transaminase was added. […] . […] Proteins in cell extracts were separated by SDS-PAGE and transferred to nitrocellulose membrane. The membrane was blocked overnight at 4° C. with 4% BSA in Tris-buffered saline containing 0.2% (v/v) Tween 20 (TBST). The membrane was then incubated for 1 hour at room temperature (RT) with antiphospho MAP kinase antibody (1:1000 dilution) in 1% BSA and TBST, then washed with TBST followed by incubation with antirabbit IgG HRP antibody. After a final wash with TBST, the membrane was visualized using enhanced chemiluminescence reagents.\nActivation of Erk-1 and -2 by stimulating CHO-mGluR5 cells with 100 μM quisqualate was examined by using an antibody specific to phosphorylated Erk-1 and -2. As shown in FIG. 1 (Lane 1), there was little phosphorylated Erk-1 and -2 in unstimulated CHO cells. […] ."}, "[6]": {"test_system": "PMA mediated Elk-1 transcription in IMR-32 cells", "experiment": "PMA mediated Elk-1 reporter assay in IMR-32 cells", "settings": "50 nM PMA", "procedure": "(§2) PKC competent cells are stimulated with PMA, preferably in the range of 50 nM, to activate Erk-2. Activated Erk-2, as discussed above, activates Elk-1 which induces reporter gene expression. […] As above, cells may be incubated with the target compound before treatment with PMA."}, "[7]": {"test_system": "PMA mediated Erk-2 phosphorylation", "experiment": "PMA mediated Erk-2 phosphorylation in differentiated IMR-32 cells, Western blot", "assay_type": "cell-based, human", "settings": "30 minutes preincubation, PMA stimulation", "description": "[…]. Differentiated IMR-32 cells were pretreated with indicated concentrations of gabapentin for 30 minutes and then stimulated with PMA for 10 minutes. Products from treated cells were analyzed by Western blotting with anti-pErk antibody.\nIMR-32 cells were grown in MEM media (Gibco BRL, 11095-080), supplemented with 10% fetal bovine serum (Gibco BRL, 26140-087), 1% antibiotic-antimycotic (Gibco BRL, 15240-096), and 1% L-glutamine (Gibco BRL, 25030-032). Cells, grown to confluency, were differentiated for a period of 7 to 10 days, or longer, by adding 1 mM dibutyryl cAMP (Sigma D-0627) and 2.5 μM 5-bromo-2-deoxyuridine (Sigma B-9285) to the media. The differentiation media was fed continuously to cells until the cells were used in an experiment. Cells were divided into groups and preincubated for 30 minutes either in the presence or absence of indicated concentration of gabapentin then subsequently challenged with 50 nM PMA for […]. […]. Proteins in cell extracts were separated by SDS-PAGE and transferred to nitrocellulose membrane. The nitrocellulose membrane was blocked overnight at 4° C. with 4% BSA in Tris-buffered saline containing 0.2% (v/v) Tween 20 (TBST). The membrane was then incubated for 1 hour at RT with antiphospho MAP kinase antibody (1:1000 dilution) in 1% BSA and TBST, then washed with TBST followed by incubation with antirabbit IgG HRP antibody. […]"}, "[8]": {"test_system": "PMA mediated Elk-1 transcription in CHO cells", "experiment": "PMA mediated Elk-1 reporter assay in CHO cells", "procedure": "as §2"}},
  "note": "Ends that are not written are not given here.",
  "data": [
    {"compound": "substance-P: a tackykinin neuropeptide that acts through the NK1, NK2, and NK3 receptors (RPKPQQFFGLM-NH2; ends and bridges not checked; UniProt P20366 58-68, looked up)", "values": [
      {"measurement": "activation of P38", "setting": "[1]", "value": "no effect"},
      {"measurement": "activation of MAP kinase", "setting": "[2]", "value": "significantly activated"},
      {"measurement": "activation of Jun kinase", "setting": "[3]", "value": "no effect"}
    ]},
    {"compound": "CC(C)C[C@H](CN)CC(=O)O", "note": "[pregabalin]", "values": [
      {"measurement": "inhibition of Elk-1 mediated luciferase activity elicited by substance P", "setting": "[4]", "value": "dose dependent inhibition"}
    ]},
    {"compound": "O=C(NOCC1CC1)c1ccc(F)c(F)c1Nc1ccc(I)cc1Cl", "note": "[PD 184352]", "values": [
      {"measurement": "effect on quisqualate activated Erk phosphorylation (positive control)", "setting": "[5]; CHO-mGluR5 cells, data not shown", "value": "block the effect of quisquolate"},
      {"measurement": "inhibition of Elk-1 mediated luciferase activity elicited by substance P", "setting": "[4]", "value": "completely inhibited"}
    ]},
    {"compound": "NCC1(CC(=O)O)CCCCC1", "note": "[gabapentin, 1-(aminomethyl) cyclohexaneacetic acid]", "values": [
      {"measurement": "effect on PMA-induced Elk-1 reporter gene expression", "setting": "[6]", "value": "dose-dependently decreased"},
      {"measurement": "effect on PMA increased Erk-2 phosphorylation", "setting": "[7]", "value": "dose-dependently blocked"},
      {"measurement": "reduction of quisqualate activated phosphorylated Erk-2", "setting": "[5]; 100 μM compound preincubated 30 minutes, 100 μM quisqualate 5 minutes, CHO-mGluR5 cells", "value": 50, "unit": "%"},
      {"measurement": "phosphorylated Erk-1 and -2 in the absence of quisqualate", "setting": "[5]; gabapentin treated CHO-mGluR5 cells, no quisqualate (Lane 3)", "value": "little or no phosphorylated Erk-1 and -2"},
      {"measurement": "inhibition of Elk-1 mediated luciferase activity elicited by substance P", "setting": "[4]", "value": "dose dependent inhibition"},
      {"measurement": "effect on PMA activated reporter gene activity", "setting": "[8]", "value": "in a dose-dependent manner, reduced"}
    ]}
  ]
}
